target: T1, Src tyrosine kinase (p60^c-src) (Homo sapiens, UniProt P12931); assay: Src tyrosine kinase inhibition (α-screen phosphotyrosine assay); assay type: biochemical; details: 30 ng/ml p60^c-src, 100 ng/ml biotin-labeled poly(Glu:Tyr=4:1), 2 μM ATP, room temperature 10 minutes; value given only as order of magnitude; read-out: IC50 (concentration required for 50% inhibition of the enzyme activity)
T1 construct: purchased Upstate Biotechnology, Inc
Description: Inhibition activity of the test compound for Src tyrosine kinase was measured by the method described as below. p60^c-src (a preparation purified partically, purchased from Upstate Biotechnology, Inc.) was usded as an enzyme. A biotin-labeled polypeptide (co-polymer of glutamic acid and tyrosine, glutamic acid:tyrosine=4:1, purchased from Nihon Schering K. K. (Japan), prepared by CIS Bio International) was used as a substrate. A solution having composition of 50 mM Tris-HCl (pH 7.5), 5 mM of MgCl2, 5 mM of MnCl2, 2 mM of dithiothreitol, 0.01% of Tween-20 was used as a buffer solution for measuring the activity of tyrosine-kinase. The amount of phosphorylation of tyrosine in the substrate after the reaction was measured by the method using phosphotyrosine recognition antibody. In the concrete, α-screen phosphotyrosine (p-tyr-100) assay kit (manufactured by PerkinElmer, Inc.) was used. Fusion™ (manufactured by PerkinElmer, Inc.) was used as a plate reader. The test compound was dissolved in dimethylsulfoxide, and diluted with the above-mentioned buffer solution for measuring the activity of tyrosine-kinase. To 5 μl of the solution of test compound was added 10 μl of a buffer solution containing 75 ng/ml of the enzyme (p60 ^c-src) and 250 ng/ml of the substrate (biotin-labeled polypeptide), and then added 10 μl of a buffer solution containing 5 μM ATP, and then the tyrosine-kinase reaction was initiated. Accordingly the tyrosine-kinase reaction was meant by a kinase reaction in a solution containing the test compound having designated concentration, 30 ng/ml of p60^c-src, 100 ng/ml of polypeptide, 2 μM of ATP, 50 mM of Tris-HCl (pH 7.5), 5 mM of MgCl2, 5 mM of MnCl2, 2 mM of dithiothreitol and 0.01% of Tween-20, and the amount of the reaction liquid was 25 μl. After the reaction was continued at room temperature for 10 minutes, the kinase reaction was terminated by adding 25 μl of a solution containing 100 mM of EDTA-2 sodium salt (Ethylene Diamine Tetraacetic Acid, disodium salt), 62.5 mM of HEPES (pH 7.4), 250 mM of NaCl, 0.1% of Bovine Serum Albumin, 10 μg/ml of streptavidine donor beads for α-screen assay, 10 μg/ml of acceptor beads binding anti-phosphotyrosin recognition antibody PY-100 for α-screen assay (Anti-phosphotyrisine(P-Tyr-100) Acceptor beads), and then the binding reaction between phosphotyrosine recognition antibody and phosphorylating tyrosine was continued at room temperature for 16 hours, and then the amount of tyrosine phosphorylation was measured by using plate reader Fusion™.
Inhibition rate (%)=100-[(count of the test compound-blank)/(control-blank)]×100 […]

T1 sequence (P12931 whole entry): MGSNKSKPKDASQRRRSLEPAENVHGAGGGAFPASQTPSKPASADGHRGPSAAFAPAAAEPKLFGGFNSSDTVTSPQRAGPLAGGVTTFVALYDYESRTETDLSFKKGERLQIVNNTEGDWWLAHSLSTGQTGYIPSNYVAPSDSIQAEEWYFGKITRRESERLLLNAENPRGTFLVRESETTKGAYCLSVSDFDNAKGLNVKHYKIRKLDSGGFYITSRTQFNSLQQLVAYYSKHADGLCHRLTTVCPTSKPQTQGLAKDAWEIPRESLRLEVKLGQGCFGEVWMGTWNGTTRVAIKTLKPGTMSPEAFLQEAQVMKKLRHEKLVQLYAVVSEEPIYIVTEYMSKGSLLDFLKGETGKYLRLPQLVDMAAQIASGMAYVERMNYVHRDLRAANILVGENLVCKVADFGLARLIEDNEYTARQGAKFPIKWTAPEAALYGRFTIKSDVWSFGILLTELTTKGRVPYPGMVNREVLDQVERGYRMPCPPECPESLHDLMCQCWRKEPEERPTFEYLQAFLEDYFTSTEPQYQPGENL

IC50	SMILES
~1 nM	Nc1c2c(=O)[nH]c3cc(NCCCN4CCOCC4)ccc3c2nn1-c1cccc(O)c1 [Example 62, 3-amino-2-(3-hydroxyphenyl)-7-{[3-(4-morpholinyl)propyl]amino}-2,5-dihydro-4H-pyrazolo[4,3-c]quinolin-4-one]
~1 nM	Nc1c2c(=O)[nH]c3ccccc3c2nn1-c1cc(O)ccc1Cl [Example 38, 3-amino-2-(2-chloro-5-hydroxyphenyl)-2,5-dihydro-4H-pyrazolo[4,3-c]quinolin-4-one]
~1 nM	Cc1ccc(O)cc1-n1nc2c(c1N)c(=O)[nH]c1ccccc12 [Example 37, 3-amino-2-(5-hydroxy-2-methylphenyl)-2,5-dihydro-4H-pyrazolo[4,3-c]quinolin-4-one]
~1 nM	Nc1c2c(=O)[nH]c3cc(NCCCN4CCC(O)CC4)ccc3c2nn1-c1cccc(O)c1 [Example 61, 3-amino-2-(3-hydroxyphenyl)-7-{[3-(4-hydroxy-1-piperidinyl)propyl]amino}-2,5-dihydro-4H-pyrazolo[4,3-c]quinolin-4-one]

— US7842701B2, “Pyrazoloquinolone derivative and use thereof” (Takeda Pharmaceutical Company Limited, priority 2004, dated 2010)
